Assay results reported in patent US8349880B2, “Bicyclic compounds for the reduction of beta-amyloid production” (Bristol-Myers Squibb Company, priority 2009, dated 2013).

test system: Aβ1-42 production; assay: Cellular assay for inhibition of Aβ1-42 production (H4 APP751 SWE clone 8.20); format: cell-based; details: 19 h, H4 APP751 SWE clone 8.20 cells, 19 h incubation; read-out: Activity Rating (Aβ42 cellular IC50, given as a number)
Summary of the method: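 H4 cells stably expressing APP751 with the Swedish mutation (1.5×10^4 cells/well) incubated with compound for 19 h at 37° C in DMEM with 0.0125% BSA. Secreted Aβ42 measured overnight at 4° C by HTRF-type pairing of 565 (Aβ42 neoepitope) and 26D6 (N-terminal) antibodies. IC50 from curve fit.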

Compound	IC50
COc1cc(Nc2nc3n(n2)CC=CC[C@H]3c2ccc(F)cc2)ccc1-n1cnc(Cl)c1 (single isomer, unassigned) [Example 2]	9 nM
COc1cc(Nc2nc3n(n2)CCCC[C@@H]3c2ccc(OCC(F)(F)F)cc2)c(F)cc1-n1cnc(C)n1 (single isomer, unassigned) [Example 118]	107 nM
COc1cc(Nc2cc3n(n2)C(c2ccc(F)cc2)CCC3)ccc1-n1cnc(Cl)c1 (stereo not shown) [Example 90, N-(4-(4-chloro-1H-imidazol-1-yl)-3-methoxyphenyl)-7-(4-fluorophenyl)-4,5,6,7-tetrahydropyrazolo[1,5-a]pyridin-2-amine]	12 nM

same assay, conditions: 19 h, H4 APP751 SWE clone 8.20 cells, 19 h incubation; read-out: Activity Rating (based on Aβ42 cellular IC50 values)

Compound	IC50
COc1cc(Nc2nc3n(n2)CCCCC3c2ccc(OCC(F)F)cc2)ccc1-n1cnc(Cl)c1 (stereo not shown) [Example 161, N-(4-(4-chloro-1H-imidazol-1-yl)-3-methoxyphenyl)-9-(4-(2,2-difluoroethoxy)phenyl)-6,7,8,9-tetrahydro-5H-[1,2,4]triazolo[1,5-a]azepin-2-amine]	10 to 100 nM
COc1cc(Nc2nc3n(n2)CCCC[C@H]3c2ccc(F)cc2)ccc1-n1cnc(Cl)c1 (single isomer, unassigned) [Example 17]	< 10 nM
COc1cc(Nc2nc3n(n2)CCCCC3c2ccc(Cl)nc2)ccc1-n1cnc(Cl)c1 (stereo not shown) [Example 41, N-(4-(4-chloro-1H-imidazol-1-yl)-3-methoxyphenyl)-9-(6-chloropyridin-3-yl)-6,7,8,9-tetrahydro-5H-[1,2,4]thiazolo[1,5-a]azepin-2-amine 2,2,2-trifluoroacetate]	10 to 100 nM
COc1cc(Nc2nc3c(s2)CCCCC3c2ccc(F)cc2)ccc1-n1cnc(Cl)c1 (stereo not shown) [Example 85, N-(4-(4-chloro-1H-imidazol-1-yl)-3-methoxyphenyl)-4-(4-fluorophenyl)-5,6,7,8-tetrahydro-4H-cyclohepta[d]thiazol-2-amine 2,2,2-trifluoroacetate]	10 to 100 nM
COc1cc(Nc2nc3n(n2)CCCCC3c2ccc(-n3cc(C)cn3)cc2)ccc1-n1cnc(Cl)c1 (stereo not shown) [Example 174, N-(4-(4-chloro-1H-imidazol-1-yl)-3-methoxyphenyl)-9-(4-(4-methyl-1H-pyrazol-1-yl)phenyl)-6,7,8,9-tetrahydro-5H-[1,2,4]triazolo[1,5-a]azepin-2-amine 2,2,2-trifluoroacetate]	< 10 nM
COc1cc(Nc2nc3n(n2)CC=CC[C@@H]3c2ccc(F)cc2)ccc1-n1cnc(C)n1 (single isomer, unassigned) [Example 6]	10 to 100 nM
COc1cc(Nc2nc3n(n2)CCCC[C@@H]3c2ccc(OC(F)(F)F)cc2)ccc1-n1cnc(Cl)c1 (single isomer, unassigned) [Example 125]	< 10 nM
COc1cc(Nc2nc3c(s2)CC(N)CC3c2ccc(F)cc2)ccc1-n1cnc(Cl)c1 (stereo not shown) [Example 77, N2-(4-(4-chloro-1H-imidazol-1-yl)-3-methoxyphenyl)-4-(4-fluorophenyl)-4,5,6,7-tetrahydrobenzo[d]thiazole-2,6-diamine]	100 to 1000 nM
COc1cc(Nc2nc3n(n2)CC[C@@H](O)C[C@@H]3c2ccc(F)cc2)ccc1-n1cnc(Cl)c1 (relative stereo) [Example 66, rel-(7S,9R)-2-(4-(4-chloro-1H-imidazol-1-yl)-3-methoxyphenylamino)-9-(4-fluorophenyl)-6,7,8,9-tetrahydro-5H-[1,2,4]triazolo[1,5-a]azepin-7-ol 2,2,2-trifluoroacetate]	< 10 nM
COc1cc(Nc2nc3c(s2)CCC[C@@H]3c2ccccc2)ccc1-n1cnc(Cl)c1 (single isomer, unassigned) [Example 70]	100 to 1000 nM
Cc1ncn(-c2ccc(Nc3nc4n(n3)CCCCC4c3ccc(OCC(F)(F)F)cc3)cc2F)n1 (stereo not shown) [Example 113, N-(3-fluoro-4-(3-methyl-1H-1,2,4-triazol-1-yl)phenyl)-9-(4-(2,2,2-trifluoroethoxy)phenyl)-6,7,8,9-tetrahydro-5H-[1,2,4]triazolo[1,5-a]azepin-2-amine]	10 to 100 nM
COc1cc(Nc2nc3c(s2)CC(=O)CC3c2ccc(F)cc2)ccc1-n1cnc(Cl)c1 (stereo not shown) [Example 75, 2-(4-(4-chloro-1H-imidazol-1-yl)-3-methoxyphenylamino)-4-(4-fluorophenyl)-4,5-dihydrobenzo[d]thiazol-6(7H)-one]	10 to 100 nM
COc1cc(Nc2nc3n(n2)CCCCC3c2ccc(F)cc2)cc(F)c1-n1cnc(Cl)c1 (stereo not shown) [Example 49, N-(4-(4-chloro-1H-imidazol-1-yl)-3-fluoro-5-methoxyphenyl)-9-(4-fluorophenyl)-6,7,8,9-tetrahydro-5H-[1,2,4]triazolo[1,5-a]azepin-2-amine]	< 10 nM
Cc1ncn(-c2ccc(Nc3nc4n(n3)CC[C@@](C)(O)C[C@@H]4c3ccc(F)cc3)cc2F)n1 (relative stereo) [Example 155, rel-(7S,9R)-2-(3-fluoro-4-(3-methyl-1H-1,2,4-triazol-1-yl)phenylamino)-9-(4-fluorophenyl)-7-methyl-6,7,8,9-tetrahydro-5H-[1,2,4]triazolo[1,5-a]azepin-7-ol 2,2,2-trifluoroacetate]	10 to 100 nM
COc1cc(Nc2nc3n(n2)CCC(=O)CC3c2ccc(F)cc2)ccc1-n1cnc(Cl)c1 (stereo not shown) [Example 137, 2-(4-(4-chloro-1H-imidazol-1-yl)-3-methoxyphenylamino)-9-(4-fluorophenyl)-8,9-dihydro-5H-[1,2,4]triazolo[1,5-a]azepin-7(6H)-one 2,2,2-trifluoroacetate]	< 10 nM
COc1cc(Nc2nc3n(n2)CCCC[C@H]3c2cc(F)cc(F)c2)ccc1-n1cnc(Cl)c1 (single isomer, unassigned) [Example 39]	< 10 nM
Cc1ncn(-c2ccc(Nc3nc4n(n3)CC[C@](C)(O)C[C@@H]4c3ccc(F)cc3)cc2F)n1 (relative stereo) [Example 154, rel-(7R,9R)-2-(3-fluoro-4-(3-methyl-1H-1,2,4-triazol-1-yl)phenylamino)-9-(4-fluorophenyl)-7-methyl-6,7,8,9-tetrahydro-5H-[1,2,4]triazolo[1,5-a]azepin-7-ol 2,2,2-trifluoroacetate]	10 to 100 nM
COc1cc(Nc2nc3c(s2)CCCC3Cc2ccccc2)ccc1-n1cnc(Cl)c1 (stereo not shown) [Example 80, 4-benzyl-N-(4-(4-chloro-1H-imidazol-1-yl)-3-methoxyphenyl)-4,5,6,7-tetrahydrobenzo[d]thiazol-2-amine 2,2,2-trifluoroacetate]	100 to 1000 nM
Cc1ncn(-c2ccc(Nc3nc4n(n3)CCCC4c3ccc(OC(F)(F)F)cc3)cc2F)n1 (stereo not shown) [Example 122, N-(3-fluoro-4-(3-methyl-1H-1,2,4-triazol-1-yl)phenyl)-8-(4-(trifluoromethoxy)phenyl)-5,6,7,8-tetrahydro-[1,2,4]triazolo[1,5-a]pyridin-2-amine 2,2,2-trifluoroacetate]	10 to 100 nM
Cc1ncnn1-c1ccc(Nc2nc3n(n2)CC[C@@](C)(O)C[C@@H]3c2ccc(F)cc2)cc1F (relative stereo) [Example 151, rel-(7S,9R)-2-(3-fluoro-4-(5-methyl-1H-1,2,4-triazol-1-yl)phenylamino)-9-(4-fluorophenyl)-7-methyl-6,7,8,9-tetrahydro-5H-[1,2,4]triazolo[1,5-a]azepin-7-ol 2,2,2-trifluoroacetate]	10 to 100 nM
COc1cc(Nc2nc3n(n2)CCC(N2CCCC2)CC3c2ccc(F)cc2)ccc1-n1cnc(Cl)c1 (stereo not shown) [Example 143, N-(4-(4-chloro-1H-imidazol-1-yl)-3-methoxyphenyl)-9-(4-fluorophenyl)-7-(pyrrolidin-1-yl)-6,7,8,9-tetrahydro-5H-[1,2,4]triazolo[1,5-a]azepin-2-amine]	10 to 100 nM
Cc1ncnn1-c1ccc(Nc2nc3n(n2)CC[C@](C)(O)C[C@@H]3c2ccc(F)cc2)cc1F (relative stereo) [Example 150, rel-(7R,9R)-2-(3-fluoro-4-(5-methyl-1H-1,2,4-triazol-1-yl)phenylamino)-9-(4-fluorophenyl)-7-methyl-6,7,8,9-tetrahydro-5H-[1,2,4]triazolo[1,5-a]azepin-7-ol 2,2,2-trifluoroacetate]	10 to 100 nM
COc1cc(Nc2nc3n(n2)CCCCC3c2ccc(-n3cccn3)cc2)ccc1-n1cnc(Cl)c1 (stereo not shown) [Example 171, 9-(4-(1H-pyrazol-1-yl)phenyl)-N-(4-(4-chloro-1H-imidazol-1-yl)-3-methoxyphenyl)-6,7,8,9-tetrahydro-5H-[1,2,4]triazolo[1,5-a]azepin-2-amine 2,2,2-trifluoroacetate]	10 to 100 nM
COc1cc(Nc2nc3n(n2)CCCCC3c2ccc(OC(F)(F)F)cc2)ccc1-n1cnc(Cl)c1 (stereo not shown) [Example 31, N-(4-(4-chloro-1H-imidazol-1-yl)-3-methoxyphenyl)-9-(4-(trifluoromethoxy)phenyl)-6,7,8,9-tetrahydro-5H-[1,2,4]triazolo[1,5-a]azepin-2-amine 2,2,2-trifluoroacetate]	< 10 nM
COc1cc(Nc2nc3n(n2)CCC(C)CC3c2ccc(F)cc2)ccc1-n1cnc(Cl)c1 (stereo not shown) [Example 136, N-(4-(4-chloro-1H-imidazol-1-yl)-3-methoxyphenyl)-9-(4-fluorophenyl)-7-methyl-6,7,8,9-tetrahydro-5H-[1,2,4]triazolo[1,5-a]azepin-2-amine]	< 10 nM
Cc1ncnn1-c1ccc(Nc2nc3n(n2)CCCCC3c2ccc(OC(F)(F)F)cc2)cc1F (stereo not shown) [Example 99, N-(3-fluoro-4-(5-methyl-1H-1,2,4-triazol-1-yl)phenyl)-9-(4-(trifluoromethoxy)phenyl)-6,7,8,9-tetrahydro-5H-[1,2,4]triazolo[1,5-a]azepin-2-amine]	10 to 100 nM
COc1cc(Nc2nc3n(n2)CCCC[C@H]3c2cccc(F)c2)ccc1-n1cnc(Cl)c1 (single isomer, unassigned) [Example 45]	< 10 nM
COc1cc(Nc2nc3n(n2)CC=CCC3c2ccc(F)cc2)ccc1-n1cnc(Cl)c1 (stereo not shown) [Example 1, (Z)—N-(4-(4-chloro-1H-imidazol-1-yl)-3-methoxyphenyl)-9-(4-fluorophenyl)-8,9-dihydro-5H-[1,2,4]triazolo[1,5-a]azepin-2-amine]	< 10 nM
